According to US12233129B2, “Methods and compositions for the treatment of cancer” (priority 2019, dated 2025):

What was measured:
UBXN2A promoter = UBXN2A promoter luciferase high-throughput drug screen in HCT-116 cells; format: cell-based, human
Procedure: Our in vivo results encouraged us to screen for compounds that can enhance expression of UBXN2A. Using the UBXN2A promoter upstream of a luciferase construct that was transiently transfected to HCT-116 cells, we performed a high-throughput drug screen with 1800 FDA approved drugs, synthetic compounds, and natural products. Forty-eight hours after transfection, cells were treated with compounds for 24 hours in triplicate (FIG. 16A). […] We looked at protein expression of UBXN2A as well as P47 (another member of the UBXD family) to confirm the selectivity of VH as a selective enhancer of UBXN2A protein in cells. […] We observed a different level of VH-dependent UBXN2A induction in different segments of the gastrointestinal system (esophagus to rectum; data not shown).
A cell-based screen was conducted in search of compounds that induce the expression of the UBXN2A gene. The 3.9K base of DNA upstream from the UBXN2A gene on human chromosome 2, including endogenous promoters and necessary enhancers as well as untranslated exon 1, was cloned into MCS-mGL.1, a Gaussia luciferase vector, and transiently transfected into HCT-116 colon cancer cells, with empty MCS-mGL.1 for background expression. […] A glow luciferase activity assay was conducted in triplicate followed by semi-quantitative RT-PCR and WB analysis for UBXN2A, p47 (negative control), or GAPDH± Veratrine or its purified form VTD. […]

[1] = system: HCT-116 p53+/− or p53 −/−; test: Clonogenic survival assay; format: cell-based, human; conditions: effective doses
Description: (§1) We next performed a clonogenic survival assay (S4E) to determine colony formation in cancer cells in the presence and absence of VTD. […] At the same time, we measured the mot-2, p53, and UBXN2A protein levels in all these cell lines. […] To verify whether VTD-induced cell death is mediated through the UBXN2A-mot-2-p53 axis, we looked at the expression of p53 in the cytoplasm and nucleus of HCT-116 cells following VTD treatment. […] Due to a high cell death in higher doses of VTD, we could not use WB analysis for reliable p53 and UBXN2A detection and quantification. Finally, we checked the effect of VTD on non-cancerous cell lines. We incubated human umbilical vein endothelial cells (HUVECs), which mimic non-cancerous endothelial cells next to tumor cells, with VTD (S4G). […] Due to the different levels of the stress condition, we observed more sensitivity to VTD in LoVo and U2OS cells versus HCT-116 cells. In addition, lack of similar response in normal cells due to the absence of stresses and cytoplasmic mot-2 further explains VTD is therefore a drug that selectively targets cancer cell.
(§2) The viability of cells was calculated as % of control.
(§3) FIG. 17: Induction of apoptosis and in vitro cytotoxicity by VTD in a human cancer cell line with different statuses of p53 and mot-2. (A-D) Cells were treated with VTD for 24, 48, and 72 hours. After incubation, dead cells were washed off, and the remaining attached cells were calculated by counting in five random fields using the Axiovert 200 M inverted microscope and AxioVision software (cell detachment assay). The % of cells attached was calculated as % of control cells. […] The data is shown as mean+SEM of three independent experiments (n=3, *p<0.05). (E-K) Cells were plated for 5 days, and the colonies of cells were treated with different concentration of VTD. The colonies of viable cells were stained with crystal violet dye and absorbance, as an index of measurement of colony forming units, was read at 562 nm (clonogenic survival assay). VTD induced a significant decrease in cell viability in a p53- and differentiation grade manner in HCT-116 poorly differentiated cells (E), HCT 116 p53+/−(F), HCT-116 p53−/− (G), LoVo well-differentiated cells (H), SW-480 (K), and two non-colon cancer cells: HepG2 (I) and U2OS (J). The data is shown as mean+SEM of three independent experiments (n=3, *p<0.05). (L) Determination of endogenous levels of mot-2, UBXN2A, HSC70, and p53 proteins in various cancer cell lines using WB. (M) HCT-116 cells were treated with VTD (10 and 30 μM) and cytoplasmic and nuclear fractions were subjected to WB. HSC70 and Orc-2 antibodies were used as cytoplasmic and nuclear markers, respectively.

HCT-116 [2] = test: Clonogenic survival assay; format: cell-based, human; conditions: in higher doses
Description: as §1, §2, §3

HepG2 = test: Clonogenic survival assay; format: cell-based, human; conditions: as low as 30 μM VTD
Description: as §1, §2, §3

LoVo [3] = test: Clonogenic survival assay; format: cell-based, human; conditions: as low as 30 μM VTD
Description: as §1, §2, §3

SW480 = test: Clonogenic survival assay; format: cell-based, human; conditions: mutant p53, even at higher doses
Description: as §1, §2, §3

U2OS = test: Clonogenic survival assay; format: cell-based, human; conditions: as low as 30 μM VTD
Description: as §1, §2, §3

[4] = system: human umbilical vein endothelial cells (HUVECs); test: Effect on non-cancerous cells; format: cell-based
Description: as §1

HCT-116 [5] = test: Annexin V early apoptosis, VTD plus etoposide; format: cell-based, human; conditions: VTD 10-200 μM plus etoposide 5 μM, 24 hours
Procedure: as §2
(§4) Cells were then stained with Annexin V apoptotic marker.

LoVo [6] = test: Annexin V early apoptosis, VTD plus etoposide; format: cell-based, human; conditions: VTD 10-200 μM plus etoposide 5 μM, 24 hours
Procedure: as §2, §4

COc1ccc(C(=O)O[C@H]2CC[C@@]3(C)[C@@H]4CC[C@H]5[C@]6(O)C[C@H](O)[C@@]7(O)[C@@H](CN8C[C@@H](C)CC[C@H]8[C@@]7(C)O)[C@]6(O)C[C@@]53O[C@]24O)cc1OC [VTD, Veratridine]
UBXN2A promoter transactivation (UBXN2A promoter): transactivates the UBXN2A promoter | p53 dependence of anti-colony formation role [1]: partially p53 dependent | colony formation (HCT-116 [2]): reduces colony formation | number of colonies (HepG2): significantly decreases the number of colonies | number of colonies (LoVo [3]): significantly decreases the number of colonies | number of colonies (SW480): no response | number of colonies (U2OS): significantly decreases the number of colonies | response of non-cancerous HUVEC cells ([4]; first 24 hours): did not respond | response of non-cancerous HUVEC cells ([4]; highest dose of VTD, 48 hours): moderate response | early apoptosis (Annexin V) (HCT-116 [5]): significantly increased the early apoptosis | early apoptosis (Annexin V) (LoVo [6]): significantly increased the early apoptosis
